In patent publication US6706754B2, “Reversed amidines and methods of using for treating, preventing, or inhibiting leishmaniasis” (The United States of America as represented by the …, priority 2000, dated 2004):
In brackets after ≈: the same amount, converted by molar mass. Entries after “also recorded” stand apart in the source; their conditions may differ. Where a name gives a salt, the structure may show the parent alone.

Experiments:
[1] = test system: L. donovani axenic amastigote-like parasites; assay: Axenic amastigote assay (CellTiter 96 tetrazolium dye growth assay); format: cell-based; details: 72 hours, 37° C., pH 5.5, concentration that inhibited parasite growth by 50%
Protocol: The growth susceptibilities of L. donovani axenic amastigote-like parasites to the candidate compounds were measured in a three day assay using the tetrazolium dye-based CellTiter 96 Aqueous Non-Radioactive Cell Proliferation Assay Kit (Promega, Madison, Wis.) according to Werbovetz, K., et al. (1999) Mol. Biochem. Parasitol. 98:53-65, which is herein incorporated by reference. Pentamidine, at a starting concentration of 100 μM, and serial dilutions thereof were used as controls. Specifically, L. donovani axenic amastigotes, as described by Joshi, M. et al. (1993) Mol. Biochem. Parasitol. 58:345-354, which is herein incorporated by reference, were seeded at 10^6 cells/ml in 96-well flat-bottomed plates (Costar, Cambridge, Mass.) and maintained as axenic amastigote-like forms by serial passage at 37° C. in a humid atmosphere comprising 5% CO2 using a slightly modified potassium-based version of the medium described by Joshi, M. et al. (1993) in the presence or absence of a given candidate compound. The medium comprised 15 mM KCl, […] KH2PO4, 10 mM K2HPO4, 0.5 mM MgSO4, and 24 mM NaHCO3 to give a final potassium concentration of […]. The medium was supplemented with 20% fetal bovine serum and was brought to pH 5.5. The final volume in each well was 60 μl. The plates were incubated at 37° C. for 72 hours, then 12 μl of the aqueous CellTiter solution from the kit (Promega, Madison, Wis.) was added to each well according to the instructions of the manufacturer. The plates were returned to the incubator for about 2 to about 3 hours. Then the absorbance of each well was measured at 490 nm using a SpectraMax Plus microplate reader (Molecular Devices, Sunnyvale, Calif.).
The results for each candidate compound may be found in the FIG. 1. The IC50 values (the concentration of the agent that inhibited parasite growth by 50%) for each candidate compound were determined for axenic amastigotes with the aid of the program SoftMax Pro (Molecular Devices, Sunnyvale, Calif.) using the following dose response equation: y=((a−d)/1+(x/c)^b)+d, wherein x=drug concentration; y=absorbance at 490 nm; a=upper asymptote; b=slope; c=IC50; and d=lower asymptote. FIG. 2 is the graphical data obtained for compound 1DWB667 as an example.

[2] = test system: L. mexicana infected macrophages; assay: Infected macrophage assay, L. mexicana; format: cell-based; details: for Macrophage IC50 L. mexicana: J774.G8 mouse macrophages, 72 hours, 33° C., number of infected macrophages inhibited by 50%
Protocol: The susceptibilities of L. mexicania infected macrophages to candidate compounds were determined by the following assay.
(§1) A one week old, confluent culture of J774.G8 mouse macrophages was washed three times with Hank's Balanced Salt Solution (HBSS) without calcium and magnesium (Sigma, St. Louis, Mo.). The J774.G8 mouse macrophages are a continuous cell line that have been cited in the literature as supporting continuous and intracellular growth of various Leishmania sp. and they have been used for drug assays against intracellular parasites, Trypanosoma cruzi and Leishmania sp. See Alcina, A., et al. (1988) Antimicrobial Agents & Chemotherapy. 32(9):1412-5; Mendez, S., et al. (1996) International Journal for Parasitology 26(6):619-22; Hodgkinson, V. H., et al. (1996) Experimental Parasitology 83(1):94-105; and Chang, K. P. (1980) Science 209(4462): 1240-42, which are herein incorporated by reference.
(§2) The macrophages were then incubated at 37° C. in a humidified 5% CO2 incubator for 15 minutes with a Trypsin-EDTA (0.05% Trypsin, 0.53 mM EDTA 4Na) solution (GIBCO BRL, Grand Island, N.Y.). The macrophages were then detached with a cell scraper and suspended by vigorous pipetting. The macrophages were then mixed with a late log phase culture of L. mexicana promastigotes to yield a solution comprising about 5×10^5 macrophages per ml and about 25×10^5 promastigotes per ml in DMEM (pH 7.4) supplemented with 10% heat inactivated fetal calf serum comprising penicillin (50 units/ml) and streptomycin (50 μg/ml).
(§3) The macrophage-parasite mixture was then pipetted into 96-well flat-bottom plates (Costar, Cambridge, Mass.) at 200 μl per well. Infection and attachment of the macrophages was allowed to occur over a period of about 48 hours at 33° C. in a humidified 5% CO2 incubator. The wells were washed three times with HBSS to remove extracellular parasites. Each well was then treated with serial dilutions of a given candidate compound in DMEM.
(§4) The treated plate was incubated for about 72 hours at 33° C. in a humidified 5% CO2 incubator. The macrophages in each well were detached into the DMEM used for the incubation by pipetting and scraping with the tip of a microliter pipettor. 75 μl of the cell suspension was transferred to a cytospin funnel and the cells were centrifuged onto microscope slides at 800 rpm for 5 minutes using a Cytospin centrifuge (Shandon, Pittsburgh, Pa.).
(§5) The slides were air dried and then fixed in methanol for 5 seconds. After the methanol evaporated, the slides were stained with 5% Giemsa stain (Fisher, Suwanee, Ga.) in phosphate buffer comprising 3.1 mM potassium phosphate dibasic and 8.3 mM sodium phosphate monobasic for 45 minutes. After thorough washing with flowing tap water, the slides were air dried and then viewed by oil immersion microscopy to determine percentage of infected cells. A cell was considered to be infected if it comprised one or more amastigote with a visible parasite nucleus and kinetoplast. Counting parasites and counting infected cells provided similar results when determining IC50 values.
(§6) The IC50 values (the concentration of the compound that inhibited the number of infected macrophages by 50%) were determined with the software program TableCurve (SPSS Science, Chicago, Ill.) using the following dose-response equation: y=a+b/(1+(x/c)^d), where x=the drug concentration, y=absorbance at 490 nm, a=upper asymptote, b=slope, c=IC50 and d=lower asymptote. FIG. 3 provides the graphical data obtained for compound 1DWB667 as an example.

[3] = test system: L. donovani infected macrophages; assay: Infected macrophage assay, L. donovani; format: cell-based; details: J774.G8 mouse macrophages, 72 hours, 37° C.; number of infected macrophages inhibited by 50%
Text: as §1, §2, §3, §4, §5, §6
The susceptibility of L. donovani infected macrophages to the compounds of the present invention were preformed by a modified protocol for L. mexicana infected macrophages above, wherein all incubations of the parasite infected macrophages were done at 37° C. rather than 33° C. FIG. 4 provides the graphical data for compound 1DWB667 as an example.

J774.G8 macrophages = assay: Macrophage toxicity assay (sulforhodamine B); format: cell-based, mouse; details: Mus musculus, 72 hours, 37° C., macrophage growth inhibited by 50%
Protocol: The toxicity of the candidate compounds on J774.G8 macrophages was measured using a sulforhodamine B (Molecular Probes, Eugene, Oreg.) based dye assay.
Specifically, a confluent culture of macrophages in a T75 culture flask was harvested by replacing the growth medium (DMEM supplemented with 10% heat inactivated fetal calf serum, 50 units/ml penicillin, and 50 μg/ml streptomycin) with 25 ml of fresh medium and scraping the cells from the bottom of the culture flask. Cell clumps were broken up by gentle pipetting and the cell suspension was transferred to a 50 ml conical centrifuge tube. The cells were then pelleted by centrifugation at 1,000 rpm at 4° C. for 5 minutes. The supernatant was then removed and the cells were resuspended in 15 ml DMEM.
After counting an aliquot of the cell suspension, the macrophages were then diluted to about 1×10^5 cells/ml in DMEM and 180 μl was added to each well of a 96 well tissue culture plate Then 20 μl serial dilutions of a given candidate compound was added. The plate was then placed in a 37° C. humidified 5% CO2 incubator and incubated for 72 hours. Then 50 μl of 50% TCA was added to each well to fix the proteins. The plate was then incubated for at least 1 hour at 4° C.
The liquid contents of the wells were discarded and the wells were washed five times with 200 μl of distilled water. After the final wash the plate was allowed to air dry for 20 minutes. 100 μl of the sulforhodamine B dye (0.4% dye in 1% acetic acid) was added. The plate was then incubated at room temperature for 20 minutes. After discarding the dye solution, the wells were washed five times with 200 μl of 1% acetic acid and then allowed to air dry for 20 minutes. At this time, 50 μl of 10 mM TRIS base was added. After a few minutes of incubation, the absorbance of each well at 490 nm was measured in a SpectraMax Pro microplate reader (Molecular Devices, Sunnyvale, Calif.).
The IC50 values for each candidate compound (the concentration of the agent that inhibited macrophage growth by 50%) were determined for the macrophages with the aid of the program SoftMax Pro (Molecular Devices, Sunnyvale, Calif.) using the following dose response equation: y=((a−d)/1+(x/c)^b)+d, where x=drug concentration; y=absorbance at 490 nm; a=upper asymptote; b=slope; c=IC50; and d=lower asymptote. FIG. 5 provides the graphical data for compound 1DWB667 as an example.

L. donovani L82 = assay: In vivo assay, murine visceral model of leishmaniasis; design: species or system Leishmania donovani; details: BALB/c mice; for % inhibition ± S.E.M.: Table 4

With “2,5-Bis[2,6-dimethyl-4-(2-pyridylimino)aminophenyl]furan [DB 714]” as the compound, how does the “Axenic Amastigote IC50 L. donovani” value [1] read?
Its value is 0.290 µg/mL.

What about the “Macrophage IC50 L. mexicana” value [2] of the same compound?
Its value is 0.359 µg/mL.

And the “Macrophage IC50 L. donovani” value [3]?
Its value is 0.246 µg/mL.

With “2,5-Bis[2-methyl-4-(2-quinolylimino)aminophenyl]furan [DB716]” as the compound, how does the “Axenic Amastigote IC50 L. donovani” value [1] read?
Its value is “about 10 μg/ml”.

For N=C(N)c1ccc(OCCCCCOc2ccc(C(=N)N)cc2)cc1 [Pentamidine, reference compound], which IC50 ([1]; Leishmania donovani) is on record?
The IC50 was 1.22 µg/mL (≈ 3.58 µM).

And the IC50 ([2]; Leishmania mexicana, Macrophage, in Mus musculus, 72 h, read-out: Macrophage IC50 L. mexicana)?
The IC50 was greater than 12.5 µg/mL.

And the “reduction of parasite burden in L. mexicana infected macrophages (in words)” value ([2]; in vitro, cutaneous strain)?
Its value is “ineffective in the macrophage model; also recorded: did not reduce the parasite burden”.

What about the IC50 (J774.G8 macrophages) of the same compound?
Its IC50 is 9.96 µg/mL (≈ 29.3 µM).

What about the “% Inhib. ± SEM” value (L. donovani L82; Table 3, 5 mg/kg i.v. × 5 (doses reduced by half, see footnotes a, c)) of the same compound?
The value was 30.5 ± 5.0%.

What about the “% inhibition ± S.E.M.” value (L. donovani L82; 4 mg/kg i.v. × 5) of the same compound?
Its value is 16.96 ± 3.3%.

And the “% Inhib. ± SEM” value (L. donovani L82; Table 5, 4 mg/kg i.v. × 5)?
Its value is 30.6 ± 5.2%.

For N=C(Nc1ccc(-c2ccc(-c3ccc(NC(=N)c4ccccc4)cc3)o2)cc1)c1ccccc1 (as salt: hydrochloride) [DB613, 2,5-Bis[4-(benzimidoylamino)phenyl]furan], which melting point is on record?
Its melting point is 312 to 314.5 °C.

With c1cc(-c2ccc(-c3ccc(N=NC4CCCCC4)cc3)o2)ccc1N=NC1CCCCC1 [DB656, 2,5-Bis[4-(cyclohexylimino)aminophenyl]furan] as the compound, how does the melting point read?
Its melting point is 242 to 243 °C (dec.).

What does the source list for C[C@@H]1[C@H](O)[C@@H](C)/C=C/C=C/C=C/C=C/C=C/C=C/C=C/[C@H](O[C@@H]2O[C@H](C)[C@@H](O)[C@H](N)[C@@H]2O)C[C@@H]2O[C@](O)(C[C@@H](O)C[C@@H](O)[C@H](O)CC[C@@H](O)C[C@@H](O)CC(=O)O[C@H]1C)C[C@H](O)[C@H]2C(=O)O [Amphotericin B, reference compound]?
Axenic Amastigote IC50 L. donovani [1]: 0.342 µg/mL; Macrophage IC50 L. mexicana [2]: 0.032 µg/mL; Macrophage IC50 L. donovani [3]: 0.024 µg/mL

With N=C(N)Nc1ccc(-c2ccc(-c3ccc(NC(=N)N)cc3)s2)cc1 [DB686, 2,5-Bis(4-guanidinophenyl)thiophene] as the compound, how does the “% inhibition ± S.E.M.” value (L. donovani L82; 10 mg/kg p.o. × 5) read?
The value was 34.91 ± 8.04%.
